Measurements from article PMC9578396, “Intrinsic Antibacterial Activity of Xeruborbactam In Vitro: Assessing Spectrum and Mode of Action” (Antimicrobial Agents and Chemotherapy, 2022).
Where “and” joins values, the source holds several entries; their conditions need not be identical. Equal values may be shown once. Read-outs that look alike come from different tables or passages of the source.

Tests used:
Assay type in all cases: cell-based
[1] = tested on: Klebsiella pneumoniae; assay: microbe, parasite or virus in culture; conditions: for MIC: Klebsiella pneumoniae
How it was run: (§1)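 MICs by CLSI broth microdilution in in-house panels. Strains tested were engineered strains carrying porin and efflux mutation combinations, KPC-producing clinical isolates and derivatives cured of KPC plasmids, and KPC-producing clinical isolates enriched for porin mutations.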

[2] = tested on: Acinetobacter baumannii; assay: Broth microdilution MIC (CLSI), Acinetobacter baumannii
How it was run: as §1

[3] = tested on: Escherichia coli; assay: Broth microdilution MIC (CLSI), Escherichia coli
How it was run: as §1

[4] = Carbapenem-resistant Acinetobacter baumannii, 505 isolates

O=C(O)c1c(F)ccc2c1OB(O)[C@@H]1C[C@H]21 [Xeruborbactam]
MIC ([1]; KPM3532, TolQ::M189K): 32 µg/mL | MIC ([1]; KPM3534 (TolQ::S31F), alone): 32 µg/mL | MIC ([1]; KPM3534, TolQ::S31F): 32 µg/mL | MIC ([1]; KPM4127 (KPM3532 TolQ::M189K/KPC-3), alone): 32 µg/mL | MIC ([1]; KPM4128 (KPM3534 TolQ::S31F/KPC-3), alone): 32 µg/mL | MIC ([1]; KPM4129 (KPM3532 TolQ::M189K/NDM-1), alone): 32 µg/mL | MIC ([1]; KPM4130 (KPM3534 TolQ::S31F/NDM-1), alone): 32 µg/mL | MIC ([1]; KPM4235, TolQ::IP(183–1844)PR): 32 µg/mL | MIC ([1]; KPM4236, TolQ::TAA at aa 103): 32 µg/mL | MIC ([1]; KPM4238, TolQ::S25F): 32 µg/mL | MIC ([1]; KPM4239, TolQ::S28F): 32 µg/mL | MIC ([1]; KPM4240, TolQ::S25Y): 32 µg/mL | MIC ([1]; Klebsiella pneumoniae isolates, read-out: highest MIC observed): 64 µg/mL | MIC ([1]; clinical isolate KP1004, OmpK35 NF, OmpK36 FN, read-out: MIC): 16 µg/mL | MIC ([1]; clinical isolate KP1070, OmpK35 NF, OmpK36 FN, read-out: MIC): 8 µg/mL | MIC ([1]; clinical isolate KP1074, OmpK35 NF, OmpK36 PFN (GD), read-out: MIC): 32 µg/mL | MIC ([1]; clinical isolate KP1093, OmpK35 NF, OmpK36 PFN (GD), read-out: MIC): 32 µg/mL | MIC ([1]; clinical isolate KP1251, OmpK35 NF, OmpK36 FN, read-out: MIC): 16 µg/mL | MIC ([1]; clinical isolate KP1274, OmpK35 FN, OmpK36 FN, read-out: MIC): 8 µg/mL | MIC ([1]; clinical isolate KP1463, OmpK35 NF, OmpK36 NF, read-out: MIC): 64 µg/mL | MIC ([1]; clinical isolate KP1469, OmpK35 NF, OmpK36 NF, read-out: MIC): 64 µg/mL | MIC ([1]; clinical isolate KP1598, OmpK35 NF, OmpK36 PFN (GD), read-out: MIC): 64 µg/mL | MIC ([1]; strain KPM1026a measured at 30°C (Fig. 6), read-out: MIC): 32 µg/mL | MIC ([1]; strain KPM1026a, wild type, read-out: MIC): 16 µg/mL | MIC ([1]; strain KPM1026a, read-out: MIC): 16 µg/mL | MIC ([1]; strain KPM1027, ramR, read-out: MIC): 16 µg/mL | MIC ([1]; strain KPM1171, lacks porins and overexpresses AcrAB): 64 µg/mL | MIC ([1]; strain KPM1171, ramR ompK36_1171, read-out: MIC): 64 µg/mL | MIC ([1]; strain KPM2040, ompK36_2040, read-out: MIC): 16 µg/mL | MIC ([1]; strain KPM2600, ΔompK35): 16 µg/mL | MIC ([1]; strain KPM2613, ΔompK35 ompK36_2040): 32 µg/mL | MIC ([1]; strain KPM2696, ΔacrB): 16 µg/mL | percentage of strains with xeruborbactam MIC values ≥32 µg/ml ([1]; OmpK35 full-length (n=118)): 31.4% | percentage of strains with xeruborbactam MIC values ≥32 µg/ml ([1]; OmpK35 full-length, OmpK36 GD (n=11)): 82% | percentage of strains with xeruborbactam MIC values ≥32 µg/ml ([1]; OmpK35 full-length, OmpK36 full length (n=82)): 6.1% | percentage of strains with xeruborbactam MIC values ≥32 µg/ml ([1]; OmpK35 full-length, OmpK36 non-functional (n=25)): 92% | percentage of strains with xeruborbactam MIC values ≥32 µg/ml ([1]; OmpK35 non-functional (n=318)): 49% | percentage of strains with xeruborbactam MIC values ≥32 µg/ml ([1]; OmpK35 non-functional, OmpK36 GD (n=149)): 74.5% | percentage of strains with xeruborbactam MIC values ≥32 µg/ml ([1]; OmpK35 non-functional, OmpK36 full length (n=130)): 3.4% | percentage of strains with xeruborbactam MIC values ≥32 µg/ml ([1]; OmpK35 non-functional, OmpK36 non-functional (n=39)): 95% | percentage of strains with xeruborbactam MIC values ≥32 µg/ml ([1]; OmpK36 GD (n=160)): 75% | percentage of strains with xeruborbactam MIC values ≥32 µg/ml ([1]; OmpK36 non-functional (n=65)): 92.3% and 92% | fold MIC increase ([1]; inactivation of ompK36 alone or in combination with ompK35): 2 fold and 2- to 4 fold | fold MIC increase ([1]; strain KPM1171 vs wild type): 4 fold | MIC ([2]; Acinetobacter baumannii ACM1320 (ATCC 17978)): 16 µg/mL | MIC ([2]; Acinetobacter baumannii ACM1320 (ATCC 17978), read-out: MIC): 72 µM | MIC ([2]; Acinetobacter baumannii, 505 isolates of carbapenem-resistant A. baumannii, read-out: modal MIC): 32 µg/mL | MIC ([2]; Acinetobacter baumannii, AB1007 (no beta-lactamase), xeruborbactam 0 µg/ml, read-out: MIC): 16 µg/mL | MIC ([2]; Acinetobacter baumannii, ATCC17978, Acinetobacter baumannii ACM1320 (ATCC 17978), read-out: MIC): 72 µM and 16 µg/mL | MIC ([2]; Acinetobacter baumannii, ATCC17978, strain ATCC 17978 (Fig. 6), read-out: MIC): 16 µg/mL | MIC ([2]; Acinetobacter baumannii, pumpless strain of A. baumannii, read-out: MIC): 18 µM and 4 µg/mL | MIC ([2]; Acinetobacter baumannii, strain AB1007, wild type, read-out: MIC): 16 µg/mL | MIC ([2]; Acinetobacter baumannii, strain ACM1013, ΔadeIJK): 4 µg/mL | MIC ([2]; Acinetobacter baumannii, strain ACM1014, ΔadeABC): 16 µg/mL | MIC ([2]; Acinetobacter baumannii, strain ACM1015, ΔadeIJK ΔadeABC): 4 µg/mL | MIC ([2]; Acinetobacter baumannii, strain ACM1027, adeN (AdeIJK overexpression)): 32 µg/mL | MIC ([2]; Acinetobacter baumannii, strain ACM1030, adeS (AdeABC overexpression)): 16 µg/mL | MIC ([2]; Acinetobacter baumannii, strain AB1007, read-out: MIC): 16 µg/mL | MIC50 [2, 4]: 16 µg/mL | MIC90 [2, 4]: 64 µg/mL | fold MIC decrease ([2]; adeIJK inactivation): 4 fold | fold MIC increase ([2]; adeIJK overexpression): 2 fold | MIC ([3]; EC1078, PBP2 same as MG1655, PBP3 I332V): 32 | MIC ([3]; EC1081, PBP2 same as MG1655, PBP3 Q227H): 8 | MIC ([3]; EC1085, PBP2 T331P, PBP3 A233T I332V): 8 | MIC ([3]; EC1088, PBP2 A308G, PBP3 same as MG1655): 8 | MIC ([3]; EC1097, PBP2 M574I, PBP3 Q227H): 8 | MIC ([3]; EC1098, PBP2 V217M, PBP3 YRIN ins, I532L): 8 | MIC ([3]; EC1103, PBP2 same as MG1655, PBP3 YRIN ins, Q227H, E349K, I532L): 8 | MIC ([3]; EC1105, PBP2 A543T, PBP3 YRIN ins, Q227H, E349K, I532L): 8 | MIC ([3]; EC1119, PBP2 same as MG1655, PBP3 YRIN ins, Q227H, E349K, I532L): 32 | MIC ([3]; EC1121, PBP2 V217M, PBP3 YRIN ins, E349K, I532L): 8 | MIC50 ([3]; Escherichia coli, 334 isolates): 8 µg/mL | MIC90 ([3]; Escherichia coli, 334 isolates): 16 µg/mL | MIC range ([3]; Escherichia coli, 334 isolates): 2 to 32 µg/mL | MIC ([3]; Escherichia coli, Escherichia coli isolates, read-out: highest MIC observed): 32 µg/mL | MIC ([3]; Escherichia coli, MG1655, Escherichia coli ECM5497 (MG1655), read-out: MIC): 72 µM and 16 µg/mL | MIC ([3]; Escherichia coli, clinical isolate EC1078, OmpK35 NF, OmpK36 NF, read-out: MIC): 32 µg/mL | MIC ([3]; Escherichia coli, clinical isolate EC1081, OmpK35 FN, OmpK36 FN, read-out: MIC): 8 µg/mL | MIC ([3]; Escherichia coli, clinical isolate EC1085, OmpK35 FN, OmpK36 FN, read-out: MIC): 8 µg/mL | MIC ([3]; Escherichia coli, clinical isolate EC1088, OmpK35 FN, OmpK36 FN, read-out: MIC): 8 µg/mL | MIC ([3]; Escherichia coli, clinical isolate EC1097, OmpK35 FN, OmpK36 FN, read-out: MIC): 8 µg/mL | MIC ([3]; Escherichia coli, clinical isolate EC1098, OmpK35 NF, OmpK36 FN, read-out: MIC): 8 µg/mL | MIC ([3]; Escherichia coli, clinical isolate EC1119, OmpK35 NF, OmpK36 NF, read-out: MIC): 32 µg/mL | MIC ([3]; Escherichia coli, clinical isolate EC1121, OmpK35 NF, OmpK36 FN, read-out: MIC): 8 µg/mL | MIC ([3]; Escherichia coli, strain ECM5497, wild type, read-out: MIC): 8 µg/mL | MIC ([3]; Escherichia coli, strain ECM6001, ΔacrB): 8 µg/mL | MIC ([3]; Escherichia coli, strain ECM6502, marR (AcrAB overexpression)): 8 µg/mL | MIC ([3]; Escherichia coli, strain ECM5497, read-out: MIC): 8 µg/mL
